The target in data set [1] is T1, dopamine transporter (Macaca fascicularis, UniProt Q9GJT6).
T1 construct: The caudate-putamen was dissected from coronal slices and yielded 1.4±0.4 g tissue; Membranes were prepared as described previously; from tissue; host or cells: caudate-putamen membranes of cynomolgus or rhesus monkey brain
In words: Dopamine transporter assay: inhibition of {3H}WIN 35,428 binding in caudate-putamen membranes. Details: species or system rhesus or cynomolgus monkey. The settings on record: for IC50: IC50 (nM) DAT, inhibition of {3H}WIN 35,428 binding, monkey caudate-putamen, mean of 2 or more independent experiments in triplicate; for SERT/DAT: selectivity ratio IC50 SERT / IC50 DAT.

For data set [2], the target named is T2, serotonin transporter (Macaca mulatta, UniProt Q9MYX0).
T2 construct: The serotonin transporter was assayed in caudate-putamen membranes using conditions similar to those for the dopamine transporter; from tissue; host or cells: caudate-putamen membranes of cynomolgus or rhesus monkey brain
In words: Serotonin transporter assay: inhibition of {3H}citalopram binding in caudate-putamen membranes. The settings on record: IC50 (nM) SERT, monkey caudate-putamen, mean of 2 or more independent experiments in triplicate. Details: species or system rhesus or cynomolgus monkey.

Each structure is given as a SMILES string.

One may read the melting point as the temperature of the solid-liquid transition. For orientation: IC50 means the concentration that gives 50% inhibition.

T2 sequence (Q9MYX0 whole entry): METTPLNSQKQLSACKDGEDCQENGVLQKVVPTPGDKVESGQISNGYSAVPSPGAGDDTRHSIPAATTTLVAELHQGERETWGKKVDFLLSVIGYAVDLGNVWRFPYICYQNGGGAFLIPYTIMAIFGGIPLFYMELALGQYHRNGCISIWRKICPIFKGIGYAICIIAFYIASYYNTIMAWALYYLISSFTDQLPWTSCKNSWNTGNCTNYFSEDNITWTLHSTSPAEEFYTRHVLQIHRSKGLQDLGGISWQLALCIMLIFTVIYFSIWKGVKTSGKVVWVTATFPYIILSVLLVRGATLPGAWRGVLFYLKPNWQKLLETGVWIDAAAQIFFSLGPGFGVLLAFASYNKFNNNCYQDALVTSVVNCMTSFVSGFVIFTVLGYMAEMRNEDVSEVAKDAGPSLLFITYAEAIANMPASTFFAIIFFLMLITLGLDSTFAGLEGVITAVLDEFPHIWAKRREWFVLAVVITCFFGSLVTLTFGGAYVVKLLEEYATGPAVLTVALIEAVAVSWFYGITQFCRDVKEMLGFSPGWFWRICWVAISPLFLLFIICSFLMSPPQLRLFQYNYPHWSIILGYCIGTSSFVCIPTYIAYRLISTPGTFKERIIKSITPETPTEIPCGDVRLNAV
T1 sequence (Q9GJT6 whole entry): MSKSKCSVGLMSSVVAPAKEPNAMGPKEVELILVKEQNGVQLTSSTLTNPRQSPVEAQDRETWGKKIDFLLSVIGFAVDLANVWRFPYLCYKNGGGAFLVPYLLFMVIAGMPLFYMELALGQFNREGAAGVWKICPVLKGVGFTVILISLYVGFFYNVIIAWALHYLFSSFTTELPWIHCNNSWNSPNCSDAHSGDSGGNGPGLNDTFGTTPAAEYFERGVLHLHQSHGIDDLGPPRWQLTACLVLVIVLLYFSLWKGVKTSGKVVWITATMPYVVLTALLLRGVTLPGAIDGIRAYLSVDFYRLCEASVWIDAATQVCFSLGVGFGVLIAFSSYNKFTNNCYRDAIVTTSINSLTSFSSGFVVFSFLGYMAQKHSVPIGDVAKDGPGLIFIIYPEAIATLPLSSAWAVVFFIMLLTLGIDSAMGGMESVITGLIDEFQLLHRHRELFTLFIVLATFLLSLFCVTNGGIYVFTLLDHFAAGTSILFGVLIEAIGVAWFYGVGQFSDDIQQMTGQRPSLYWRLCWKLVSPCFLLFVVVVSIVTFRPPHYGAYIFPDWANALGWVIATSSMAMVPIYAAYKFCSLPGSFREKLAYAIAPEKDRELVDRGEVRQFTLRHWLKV

In turn, `COC(=O)C1=C(c2ccccc2)C[C@@H]2C[C@@H](O)[C@H]1N2C` (racemic) [Compound 8d, 2-Carbomethoxy-3-phenyl-7β-hydroxy-8-methyl-8-azabicyclo{3.2.1}oct-2-ene] had a melting point of 113 to 114 °C. In data set [1], the IC50 is over 10000 nM and the SERT/DAT is 1. Also, the half-inhibitory concentration (IC50) in data set [2] was over 10000 nM.

`COC(=O)C1C(c2ccc(Cl)c(Cl)c2)CC2CC(O)C1N2C` (racemic) [Compound 15a, 2β-Carbomethoxy-3β-(3,4-dichlorophenyl)-7β-hydroxy-8-methyl-8-azabicyclo{3.2.1}octane] had a melting point of 185.5 to 186.5 °C. Besides, the SERT/DAT in data set [1] was found to be 20. The 50% inhibitory concentration (IC50) in data set [2] was found to be 27.7 nM.

`COC(=O)[C@@H]1[C@H]2[C@H](O)C[C@@H](C[C@@H]1c1ccc(F)cc1)N2C` (racemic) [Compound 15c, 2β-Carbomethoxy-3β-(4-fluorophenyl)-7β-hydroxy-8-methyl-8-azabicyclo{3.2.1}octane] returned a melting point of 179.3 to 181.3 °C. In data set [1], the SERT/DAT is over 80. Further, the half-maximal inhibitory concentration (IC50) in data set [2] is over 10000 nM.

Regarding `COC(=O)[C@H]1[C@@H](c2ccc(Cl)c(Cl)c2)C[C@@H]2[C@@H](O)C[C@H]1N2C` (relative stereo) [Compound 14a, 2β-Carbomethoxy-3β-(3,4-dichlorophenyl)-6β-hydroxy-8-methyl-8-azabicyclo{3.2.1}octane], the melting point lay within 93.5 to 95.5 °C. The SERT/DAT in data set [1] is 55. The molecule further gave a 50% inhibitory concentration (IC50) in data set [2] of 166 nM.

In the case of `COC(=O)[C@H]1[C@@H](c2ccc3ccccc3c2)C[C@@H]2[C@@H](O)C[C@H]1N2C` (relative stereo) [Compound 14b, 2β-Carbomethoxy-3β-(2-naphthyl)-6β-hydroxy-8-methyl-8-azabicyclo{3.2.1}octane], the melting point fell in the range of 84 to 86 °C. The SERT/DAT in data set [1] came out at 4. In data set [2], this molecule showed an IC50 of 34.2 nM.

Molecule `COC(=O)[C@H]1[C@@H](c2ccccc2)C[C@@H]2[C@@H](O)C[C@H]1N2C` (relative stereo) [Compound 14d, 2β-Carbomethoxy-3β-phenyl-6β-hydroxy-8-methyl-8-azabicyclo{3.2.1}octane] returned a melting point of 150 to 152 °C. Also, in data set [1], the SERT/DAT came out at 14. For the same molecule, the IC50 in data set [2] came to 88000 nM.

The molecule `COC(=O)[C@@H]1[C@H]2[C@H](O)C[C@@H](C[C@@H]1c1ccc3ccccc3c1)N2C` (relative stereo) [Compound 15b, 2β-Carbomethoxy-3β-(2-naphthyl)-7β-hydroxy-8-methyl-8-azabicyclo{3.2.1}octane] gave a melting point of 207.5 to 208.5 °C. In addition, in data set [1], the SERT/DAT was found to be 4. Besides, the IC50 in data set [2] was determined as 5.57 nM.

`COC(=O)[C@@H]1[C@H]2C[C@H](O)[C@@H](C[C@H]1c1ccc3ccccc3c1)N2C` (relative stereo) [Compound 17b, 2β-Carbomethoxy-3α-(2-naphthyl)-6β-hydroxy-8-methyl-8-azabicyclo{3.2.1}octane] returned a melting point of 93.5 to 94.5 °C. Besides, the SERT/DAT in data set [1] is listed as 6. In addition, in data set [2], the IC50 turned out to be 180 nM.

Molecule `COC(=O)[C@@H]1[C@H]2[C@H](O)C[C@@H](C[C@H]1c1ccc3ccccc3c1)N2C` (relative stereo) [Compound 18b, 2β-Carbomethoxy-3α-(2-naphthyl)-7β-hydroxy-8-methyl-8-azabicyclo{3.2.1}octane] had a melting point of 140.1 to 141.9 °C. In addition, the SERT/DAT in data set [1] is reported as 34. The molecule further yielded an IC50 in data set [2] of 94 nM.

In the case of `COC(=O)[C@@H]1[C@H]2[C@H](O)C[C@@H](C[C@H]1c1ccc(F)cc1)N2C` (relative stereo) [Compound 18c, 2β-Carbomethoxy-3α-(4-fluorophenyl)-7β-hydroxy-8-methyl-8-azabicyclo{3.2.1}octane], the melting point lay in the range of 177.2 to 179 °C. Besides, the SERT/DAT in data set [1] was over 120. Further, in data set [2], the half-maximal inhibitory concentration (IC50) is over 20000 nM.

The molecule `COC(=O)[C@@H]1[C@H]2C(=O)C[C@@H](C[C@H]1c1ccc(Cl)c(Cl)c1)N2C` (relative stereo) [Compound 20, 2β-Carbomethoxy-3α-(3,4-dichlorophenyl)-8-methyl-8-azabicyclo{3.2.1}oct-7-one] displayed a melting point of 163.5 to 164.5 °C. In data set [1], this molecule had an IC50 of 14.2 nM. In data set [2], this molecule registered an IC50 of 7040 nM.

As for `CCC(=O)[C@@H]1[C@H]2[C@H](O)C[C@@H](C[C@@H]1c1ccc(Cl)c(Cl)c1)N2C` (relative stereo) [Compound 23, 1-{3β-(3,4-Dichlorophenyl)-7β-hydroxy-8-methyl-8-azabicyclo{3.2.1}oct-2-yl}propan-1-one], the melting point is 195.5 to 196.5 °C. Further, the half-maximal inhibitory concentration (IC50) in data set [1] is 0.81 nM. Besides, in data set [2], the half-maximal inhibitory concentration (IC50) turned out to be 97 nM.

`CCC(=O)[C@@H]1[C@H]2[C@H](O)C[C@@H](C[C@H]1c1ccc(Cl)c(Cl)c1)N2C` (relative stereo) [Compound 26, 1-{3α-(3,4-Dichlorophenyl)-7β-hydroxy-8-methyl-8-azabicyclo{3.2.1}oct-2-yl}propan-1-one] came in with a melting point of 113.1 to 114.1 °C. Moreover, in data set [1], the IC50 came out at 1.1 nM. This molecule showed a concentration for half-maximal inhibition (IC50) in data set [2] of 2520 nM.

`COC(=O)C1=C(c2ccc3ccccc3c2)CC2C(O)CC1N2C` (stereo not drawn) [Compound 7b, 2-Carbomethoxy-3-(2-naphthyl)-6β-hydroxy-8-methyl-8-azabicyclo{3.2.1}oct-2-ene]: the melting point lay within 165 to 167 °C. Moreover, in data set [1], the SERT/DAT came out at 1. The concentration for half-maximal inhibition (IC50) in data set [2] was 260 nM.

In turn, `COC(=O)C1=C(c2ccc(F)cc2)CC2C(O)CC1N2C` (stereo not drawn) [Compound 7c, 2-Carbomethoxy-3-(4-fluorophenyl)-6β-hydroxy-8-methyl-8-azabicyclo{3.2.1}oct-2-ene] had a melting point of 124 to 126 °C. In data set [1], the IC50 was over 20000 nM and the SERT/DAT amounted to 1. Moreover, the IC50 in data set [2] was over 20000 nM.

In the case of `COC(=O)C1=C(c2ccccc2)CC2C(O)CC1N2C` (stereo not drawn) [Compound 7d, 2-Carbomethoxy-3-phenyl-6β-hydroxy-8-methyl-8-azabicyclo{3.2.1}oct-2-ene], the melting point was in the range of 165 to 167 °C. In addition, in data set [1], the IC50 was over 150000 nM and the SERT/DAT was 1. For the same molecule, in data set [2], the IC50 is over 100000 nM.

The molecule `COC(=O)C1=C(c2ccc3ccccc3c2)CC2CC(O)C1N2C` (stereo not drawn) [Compound 8b, 2-Carbomethoxy-3-(2-naphthyl)-7β-hydroxy-8-methyl-8-azabicyclo{3.2.1}oct-2-ene] registered a melting point of 164.2 to 165.2 °C. In addition, the SERT/DAT in data set [1] came to 15. For the same molecule, the 50% inhibitory concentration (IC50) in data set [2] was 677 nM.

As for `COC(=O)C1C(c2ccc(F)cc2)CC2C(O)CC1N2C` (stereo not drawn) [Compound 14c, 2β-Carbomethoxy-3β-(4-fluorophenyl)-6β-hydroxy-8-methyl-8-azabicyclo{3.2.1}octane], the melting point was 162 to 164 °C. Also, in data set [1], the SERT/DAT was over 42. The half-maximal inhibitory concentration (IC50) in data set [2] is over 20000 nM.

These data come from patent US7199132B2, “Tropane analogs and methods for inhibition of monoamine transport” (Organix, Inc., priority 2001, dated 2007).
